Residue numbers refer to the chain shown, from its start.
What was measured:
Assay in all cases: MST binding assay, GLUT3 variant
Conditions in all cases: read-out: Kd of SA47
[1] = target: T1, GLUT3 E378A (Homo sapiens, UniProt P11169, E378A/N43T)
T1 construct: His10 (N); made in house; host or cells: Sf9 insect cells (baculovirus)
T1 sequence (P11169 1-496 N43T/E378A): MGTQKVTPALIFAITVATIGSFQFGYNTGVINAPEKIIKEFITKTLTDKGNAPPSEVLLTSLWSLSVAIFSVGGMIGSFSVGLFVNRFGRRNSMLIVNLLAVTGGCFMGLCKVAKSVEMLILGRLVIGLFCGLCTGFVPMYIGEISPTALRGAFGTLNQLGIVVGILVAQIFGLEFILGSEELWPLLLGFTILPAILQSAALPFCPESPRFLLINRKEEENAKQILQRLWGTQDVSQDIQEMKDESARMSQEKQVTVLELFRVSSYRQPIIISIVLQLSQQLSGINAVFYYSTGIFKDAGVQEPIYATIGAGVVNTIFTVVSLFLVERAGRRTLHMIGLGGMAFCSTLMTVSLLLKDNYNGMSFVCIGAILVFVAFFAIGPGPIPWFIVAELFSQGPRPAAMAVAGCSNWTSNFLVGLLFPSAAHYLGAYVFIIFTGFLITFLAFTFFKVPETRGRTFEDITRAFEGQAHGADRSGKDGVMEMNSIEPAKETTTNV
Procedure: (§1) All mutants were generated by standard PCR-based strategy.
(§2) Inhibitors with serial dilutions were mixed with indicated protein. […] MST analyses were conducted on a Monolith NT. […] The MST data was analyzed by Monolith NT.115.

[2] = target: T2, GLUT3 N32A (Homo sapiens, UniProt P11169, N32A/N43T)
T2 construct: His10 (N); made in house; host or cells: Sf9 insect cells (baculovirus)
T2 sequence (P11169 1-496 N32A/N43T): T1 sequence (P11169 1-496 N43T/E378A) with N32A, A378E
Procedure: as §1, §2

[3] = target: T3, GLUT3 N413A (Homo sapiens, UniProt P11169, N413A/N43T)
T3 construct: His10 (N); made in house; host or cells: Sf9 insect cells (baculovirus)
T3 sequence (P11169 1-496 N43T/N413A): T1 sequence (P11169 1-496 N43T/E378A) with A378E, N413A
Procedure: as §1, §2

[4] = target: T4, GLUT3 Q159A (Homo sapiens, UniProt P11169, N43T/Q159A)
T4 construct: His10 (N); made in house; host or cells: Sf9 insect cells (baculovirus)
T4 sequence (P11169 1-496 N43T/Q159A): T1 sequence (P11169 1-496 N43T/E378A) with Q159A, A378E
Procedure: as §1, §2

[5] = target: T5, GLUT3 W386A (Homo sapiens, UniProt P11169, N43T/W386A)
T5 construct: His10 (N); made in house; host or cells: Sf9 insect cells (baculovirus)
T5 sequence (P11169 1-496 N43T/W386A): T1 sequence (P11169 1-496 N43T/E378A) with A378E, W386A
Procedure: as §1, §2

For `COC(=O)CCNCc1ccccc1-n1ncc2c(N3CCN(c4cc(F)ccc4OC)CC3)ncnc21` [SA47], which Kd [1] is on record?
The Kd was 1.1 ± 0.1 µM.

And the Kd [2]?
Its Kd is 0.941 ± 0.213 µM.

What about the Kd [3] of the same compound?
The Kd was 0.81 ± 0.214 µM.

And the Kd [4]?
Its Kd is 4.1 ± 0.8 µM.

What about the Kd [5] of the same compound?
Its Kd is 30.3 ± 10.7 µM.

— paper PMC9098912, “Molecular basis for inhibiting human glucose transporters by exofacial inhibitors” (Nature Communications, 2022)
